Experiments:
[1] = Protocol: The four β-alanine formulations (0%, 2.5%, 5.0%, and 7.5% w/w β-alanine) were sequentially applied to a different location of each patient's cheek skin by a physician. Subjective scoring for itch (0 (none) to 10 (maximum itch)) was recorded over a 5-minute period. Symbols on the bar graph represent individual patients (n=16). Bar height indicates the average value. […] P-values were calculated using a nonparametric ANOVA Kruskai-Wallis test.
β-alanine powder (GNC, #369898) was mixed into Versapro® Cream at a concentration of 0%, 2.5%, 5.0% or 7.5% w/w. The ingredients of Versapro® Cream include water, aloe Barbadensis leaf juice, cyclopentasiloxane, disodium EDTA, emulsifying wax NF, ethylhexglyglycering, ethylhexyl stearate, phenoxyethanol, sorbitol, and tocopheryl acetate. The mixture was agitated until homogenous.
A cohort of patients without skin disease were selected for testing (n=16). Each patient had 0.1 ml of cream applied to cheek skin by a physician. Over the course of 5 minutes, the patients reported the intensity of pruritus (itching) on a scale of 0 (no itching) to 10 (maximal itching). The process was repeated for all four formulations (0%, 2.5%, 5.0% or 7.5% w/w β-alanine) using different areas of cheek skin. The efficacy of topical J3-alanine was determined based on the development of pruritus.

[2] = Patient-reported itching after facial application of 5% w/w β-alanine cream with menthol; type: in vivo, human
Text: (§1) FIGS. 2A and 2B show subjective patient-reported scoring for itch (FIG. 2A) and overall discomfort (FIG. 2B) of facially applied cream containing 5% w/w β-alanine and the indicated concentration of menthol. Each of the four formulations (0%, 0.5%, 1.0%, and 1.5% w/w menthol with 5% w/w f-alanine) were sequentially applied to different locations of a patient's cheek skin by a physician. Scoring was on a scale of 0 to 10, with 0 being no itch or discomfort and 10 being maximum itch or discomfort. Each symbol represents an individual patient (n=10). Bar height indicates the average value. Error bars represent +/−SEM. * P<0.05; ** P<0.01. P-values were calculated using a nonparametric ANOVA Kruskai-Wallis test.
A cohort of patients without inflammatory skin conditions (n=10) was given four different topical formulations for facial application. All four formulations contained 5% w/w β-alanine in Versapro® Cream (see, e.g., Example 1), however, each contained a different concentration of menthol (0.0%, 0.5%, 1.0%, and 1.5% w/w). A physician sequentially applied 0.1 ml of each formulation to distinct areas of the cheek with a 10 minute pause between each application. Patients were asked to rate the degree of itching and overall discomfort on a scale of 0 (no itching) to 10 (maximal itching) over the course of 5 minutes. […]

[3] = Patient-reported overall discomfort (eye irritation, cold sensation) after facial application of 5% w/w β-alanine cream with menthol; type: in vivo, human; settings: for overall discomfort, scale 0 to 10: attributable to eye irritation and an unpleasant cold sensation
Text: as §1
A cohort of patients without inflammatory skin conditions (n=10) was given four different topical formulations for facial application. All four formulations contained 5% w/w β-alanine in Versapro® Cream (see, e.g., Example 1), however, each contained a different concentration of menthol (0.0%, 0.5%, 1.0%, and 1.5% w/w). A physician sequentially applied 0.1 ml of each formulation to distinct areas of the cheek with a 10 minute pause between each application. Patients were asked to rate the degree of itching and overall discomfort on a scale of 0 (no itching) to 10 (maximal itching) over the course of 5 minutes. The same process was repeated for the 0.5%, 1.0% and 1.5% w/w menthol containing formulations.

[4] = 0.5% w/w menthol in 5% w/w β-alanine cream

| SMILES | intensity of pruritus (itching), scale 0 to 10 ([1]; 2.5% w/w β-alanine in Versapro Cream, 0.1 ml on cheek skin, over 5 minutes, patients without skin disease (n=16)) | duration of pruritus triggered by topical cream ([1]; topical β-alanine cream on cheek skin) | intensity of itching [2, 4] | degree of itching, scale 0 to 10 ([2]; all concentrations of menthol (0.5%, 1.0%, 1.5% w/w) in 5% w/w β-alanine Versapro Cream, 0.1 ml on cheek, over 5 minutes, n=10) | eye discomfort [3, 4] | overall discomfort, scale 0 to 10 ([3]; 1.0% w/w menthol in 5% w/w β-alanine cream) | overall discomfort, scale 0 to 10 ([3]; 1.5% w/w menthol in 5% w/w β-alanine cream) |
| --- | --- | --- | --- | --- | --- | --- | --- |
| NCCC(=O)O [β-alanine, 3-aminopropanoic acid] | evident | less than 5 minutes | – | – | – | – | – |
| CC1CCC(C(C)C)C(O)C1 (stereo not shown) [menthol, 5-methyl-2-(propan-2-yl)cyclohexan-1-ol] | – | – | successfully decreased | notably reduced | without promoting eye discomfort | increased | increased |

Reference: patent US20250170085A1, “TOPICAL FORMULATION TO DECREASE SKIN INFLAMMATION OR REDNESS” (University of Pittsburgh - Of the Commonwealth System of …, priority 2022, published 2025)
